Results on 14 compounds are retold here after PubChem BioAssay (NCI).

Holding throughout (experiment): inhibition of tumour cell growth, NCI panel, 48 h
Test [1] has as its system MCF7 breast.
The test system of test [2] is SF-539 CNS.
The subject of test [3] is T-47D breast.
For test [4], the system named is BT-549 breast.
The subject of test [5] is UACC-257 melanoma.
Test [6] concerns HL-60(TB) leukemia.

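Cells were grown in 96-well plates and exposed to each compound for 48 hours at five concentrations; endpoints were interpolated linearly between bracketing concentrations, or set to the highest concentration if not reached. Here, GI50 denotes the concentration required for 50% inhibition of growth. TGI: concentration producing complete growth inhibition.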 Where only a bound is given, the exact number is not on record here.

On to `NC1=C(Cl)C(=O)c2ccc(S(N)(=O)=O)cc2C1=O`, for which the GI50 in test [1] was 0.15 µM; in test [2] it was 0.2 µM; in test [3], 0.318 µM; in test [4] it was 0.171 µM; in test [5], 0.128 µM; in test [6], 0.366 µM. Moreover, the TGI in test [1] stood at 0.346 µM; in test [2], 0.379 µM; in test [3], 1.2 µM; in test [4], 0.314 µM; in test [5], 0.267 µM; in test [6] it was 1.18 µM.

On to `C#CCN=C(N/N=C/c1ccc([N+](=O)[O-])o1)NS(=O)(=O)c1cc(C)c(Cl)cc1SCC(N)=O`, for which the GI50 in test [1] is 6.59 µM; in test [2], 17.3 µM; in test [3], 18.8 µM; in test [4], 1.79 µM; in test [5], 13.9 µM; in test [6], 21.1 µM. Further, the TGI is 22.5 µM in test [1]; 31.7 µM in test [2]; 34.9 µM in test [3]; 9.43 µM in test [4]; 27 µM in test [5]; above 100 µM in test [6].

As for `CN(C)CCCN(c1nc(C(Cl)(Cl)Cl)ns1)c1nc(C(Cl)(Cl)Cl)ns1`, the GI50 in test [1] was 1.9 µM; in test [2], 1.91 µM; in test [3] it was 2.98 µM; in test [5], 1.8 µM; in test [6], 1.52 µM. Moreover, the TGI in test [1] stood at 3.62 µM; in test [2], 3.8 µM; in test [3], 10.5 µM; in test [5], 3.65 µM; in test [6], 3.43 µM.

With `COc1ccc(C(=O)N2CCc3c([nH]c4ccccc34)C2C(=O)O)o1` (stereo unspecified), the TGI in test [1], in test [2], in test [3], in test [4], in test [5] and in test [6] was above 10 µM in each case.

As for `CN[C@]12CC3(C=CC(=O)C=C3)O[C@@]1(Cc1ccc(OC)cc1)N(C)C(=O)N2`, the GI50 in test [1] was 0.778 µM; in test [2], 1.9 µM; in test [3] it was 2.12 µM; in test [4], 1.52 µM; in test [5], 3.52 µM; in test [6], 1.84 µM. Also, the TGI in test [1] was determined as 15.1 µM; in test [2], 3.97 µM; in test [3], 7.23 µM; in test [4] it was 4.22 µM; in test [5] it was 19.8 µM; in test [6], 6.49 µM.

Consider `COc1ccc(/C(C)=C(\c2ccc(Cl)cc2)c2ccc(OCCN3CCCC3)cc2)cc1F`, for which the GI50 is 2.41 µM in test [1]; 2.74 µM in test [2]; 3.3 µM in test [3]; 3.24 µM in test [4]; 0.872 µM in test [5]; 3.54 µM in test [6]. Also, the TGI in test [1] is 6.15 µM; in test [2], 5.75 µM; in test [3], 7.87 µM; in test [4], 6.74 µM; in test [5], 3.2 µM; in test [6], 7.89 µM.

Turning to `Cc1cccc2c(N=Nc3ccc(S(N)(=O)=O)cc3)c(O)[nH]c12`, the GI50 in test [1], in test [2], in test [3], in test [4], in test [5] and in test [6] was above 25 µM in each case. Besides, the TGI in test [1], in test [2], in test [3], in test [4], in test [5] and in test [6] was above 25 µM in each case.

Take `O=c1cc(-c2ccc(Cl)cc2)[nH]c2ncccc12`: the TGI is above 100 µM in test [1]; above 100 µM in test [2]; above 100 µM in test [3]; above 100 µM in test [4]; above 100 µM in test [5]; 41.6 µM in test [6]. In addition, the GI50 in test [6] was 16.6 µM.

With `O=C(Nc1n[nH]c2nc(-c3ccco3)ccc12)C1CC1`, the GI50 in test [1], in test [2], in test [3], in test [4], in test [5] and in test [6] was above 25 µM in each case. In addition, the TGI in test [1], in test [2], in test [3], in test [4], in test [5] and in test [6] was above 25 µM in each case.

Regarding `C=C1C(=O)O[C@@H]2C(=O)[C@@H](C)[C@@H]3C=CC(=O)[C@@]3(C)[C@@H](OC(=O)/C(C)=C\C)[C@H]12`, the TGI in test [1] is 4.93 µM; in test [2] it was 5.11 µM; in test [3], 1.68 µM; in test [4], 2.01 µM; in test [5], 4.65 µM; in test [6], 0.415 µM.

Turning to `COc1ccc(-c2nn(-c3cccc(NC(=O)Nc4ccc(Cl)c(C(F)(F)F)c4)c3)cc2-c2ccncc2)cc1Cl`, the GI50 in test [1] was 2.19 µM; in test [2], 2.04 µM; in test [3] it was 2.22 µM; in test [4] it was 2.08 µM; in test [5], 2.44 µM. Also, the TGI in test [1] is 13.7 µM; in test [2], 5.11 µM; in test [3], above 100 µM; in test [4], 4.83 µM; in test [5], 7.42 µM.

Turning to `COC(=O)CCC(NC(=O)C(C)NC(=O)COC1C(O)C(OC(=O)CCNc2c3ccccc3nc3cccc([N+](=O)[O-])c23)OC(OCc2ccccc2)C1NC(C)=O)C(N)=O` (stereo unspecified), the TGI in test [1] was 9.81 µM; in test [2] it was above 10 µM; in test [3] it was above 10 µM; in test [4] it was above 10 µM; in test [5], above 10 µM.

On to `C=C1C(=O)O[C@H]2[C@H]1CC/C(COC(=O)CCCCCCCCC(=O)OC/C1=C/CC[C@@]3(C)O[C@H]3[C@H]3OC(=O)C(=C)[C@@H]3CC1)=C\CC[C@@]1(C)O[C@@H]21`, for which the GI50 in test [2] is 1.9 µM; in test [3], 2.16 µM; in test [4], 1.54 µM; in test [5], 2.25 µM; in test [6] it was 2.05 µM. The TGI in test [2] was 3.95 µM; in test [3], 6.2 µM; in test [4] it was 3.22 µM; in test [5], 4.41 µM; in test [6], 8.26 µM.

In the case of `S=c1nc2[nH]ncc2c(N/N=C/c2ccccc2)[nH]1`, the GI50 in test [1] is 32 µM; in test [2] it was above 100 µM; in test [4], above 100 µM; in test [5] it was above 100 µM; in test [6], above 100 µM. Further, the TGI in test [1] is 47 µM; in test [2] it was above 100 µM; in test [4], above 100 µM; in test [5], above 100 µM; in test [6], above 100 µM.
